Test results from paper PMC6112376, “Comprehensive Analyses and Prioritization of Tox21 10K Chemicals Affecting Mitochondrial Function by in-Depth Mechanistic Studies” (Environmental Health Perspectives, 2018).
Read-outs that look alike come from different tables or passages of the source.

Assays:
HepG2 cells [1] = details: cited from earlier work
rat primary hepatocytes = assay: MMP assay in rat primary hepatocytes; details: for IC50: read-out: MMP assays IC50 (µM) Rat Hepatocytes
HepG2 cells [2] = details: HepG2 cells, single number from one experiment; for IC50: read-out: MMP assays IC50 (µM) HepG2
[3] = read-out: MMP assays IC50 (µM) qHTS-HepG2
[4] = rat hepatocytes, mean ± SD of three experiments
[5] = read-out: MMP assays IC50 (µM), qHTS-HepG2

SMILES	MMP assays efficacy (%) qHTS-HepG2 (HepG2 cells [1])	IC50 (HepG2 cells [1]; [3]) [µM]	MMP assays IC50 (µM) Rat Hepatocytes (rat primary hepatocytes; [4])	MMP assays efficacy (%) Rat Hepatocytes (rat primary hepatocytes; [4])	MMP assays IC50 (µM) HepG2 (HepG2 cells [2])	MMP assays efficacy (%) HepG2 (HepG2 cells [2])	IC50 (HepG2 cells [1]; [5]) [µM]	IC50 (rat primary hepatocytes; [4]) [µM]	IC50 (HepG2 cells [2]) [µM]	MMP assays IC50 (µM) qHTS-HepG2 (HepG2 cells [1])	IC50 (rat primary hepatocytes; Rattus norvegicus, Hepatocyte) [µM]
CC(=O)OCC(=O)[C@@]1(OC(C)=O)[C@@H](C)C[C@H]2[C@@H]3C[C@H](F)C4=CC(=O)C=C[C@]4(C)[C@@]3(F)[C@@H](O)C[C@@]21C [Diflorasone diacetate]	-50±7%	28.7 ± 1.87	inactive	inactive	inactive	inactive	–	–	–	–	–
CCCCCc1ccco1 [Compound 2-Pentylfuran]	-76±20%	42.2 ± 2.81	inactive	inactive	inactive	inactive	–	–	–	–	–
CC[C@H](NC(=O)c1cc(F)ccc1[N-]S(=O)(=O)c1cccc2cccnc12)c1ccccc1.[Na+]	-101±14%	–	–	-84±50%	–	-98%	4.42 ± 6.97	35.9 ± 20.2	11.2	–	–
C[C@@H]1C[C@H]2[C@@H]3CCC4=CC(=O)C=C[C@]4(C)[C@@]3(F)[C@@H](O)C[C@]2(C)[C@@]1(O)C(=O)COC(=O)c1cccc(S(=O)(=O)[O-])c1.[Na+] [Dexamethazone metasulfobenzoate sodium]	inactive	–	inactive	inactive	inactive	inactive	–	–	–	inactive	–
CC(C)(C)NCC(O)CSc1nc(-c2ccc(C(N)=O)s2)cs1.Cl (stereo not shown) [Arotinolol hydrochloride]	-64±8%	17 ± 3.45	inactive	inactive	–	-88%	–	–	27.5	–	–
CCCCCCCC/C=C\CCCCCCCC(N)=O [(9Z)-Octadec-9-enamide]	-67±17%	41.6 ± 7.16	inactive	inactive	inactive	inactive	–	–	–	–	–
CC(C)c1ccccc1O [Compound 2-Isopropylphenol]	inactive	–	inactive	inactive	inactive	inactive	–	–	–	inactive	–
Cc1cc2nc3ccc(N(C)C)cc3[s+]c2cc1N.[Cl-] [Toluidine blue]	-50±26%	–	inactive	inactive	–	-44%	3.48 ± 1.6	–	4.89	–	–
CCCCCCCCCCn1cc[n+](C)c1.O=S(=O)([O-])C(F)(F)F [1-Decyl-3-methylimidazolium trifluoromethanesulfonate]	-57±16%	1.67 ± 2.71	–	-125±47%	–	-99%	–	12.1 ± 3.97	7.08	–	–
Nc1ccc(NC(=O)c2ccc(N)cc2)cc1 [4,4'-Diaminobenzanilide]	-100±8%	3.72 ± 2.85	–	-86±15%	–	-93%	–	33.5 ± 2.73	7.08	–	–
COc1ccc(C(=O)c2ccccc2)c(O)c1 [Compound 2-Hydroxy-4-methoxybenzophenone]	inactive	–	–	–	inactive	inactive	–	–	–	inactive	50.1 ± 18.9
CN(C)C(=O)Nc1ccccc1 [Fenuron]	inactive	–	inactive	inactive	inactive	inactive	–	–	–	inactive	–
CCCCCCCC[N+](C)(CCCCCCCC)CCCCCCCC.O=S(=O)([O-])C(F)(F)F [Methyltrioctylammonium trifluoromethanesulfonate]	-86±9%	–	–	-73±33%	–	-105%	2.16 ± 0.72	11.4 ± 2.12	2.24	–	–
CCCCCCCC[N+](CCCCCCCC)(CCCCCCCC)CCCCCCCC.[Br-] [tetra-N-Octylammonium bromide]	-88±6%	–	inactive	inactive	–	-92%	–	–	0.13	–	–
Cc1ccc2oc(CN(Cc3ccccc3)C(=O)Nc3c(F)cc(F)cc3F)c(-c3ccc(Cl)cc3)c2c1	-59±30%	21 ± 2.43	inactive	inactive	–	-66%	–	–	56.2	–	–
CC(=O)Nc1ccc(NC(=S)NC(=O)c2ccc(C(C)(C)C)cc2)cc1 [Tenovin-1]	-115±19%	–	–	-41±18%	–	-114%	3.27 ± 2.74	18.4 ± 1.5	3.88	–	–
CCCCCCCCCCCCCC[N+](C)(C)Cc1ccccc1.O.O.[Cl-]	-76±17%	16.4 ± 4.28	inactive	inactive	–	-114%	–	–	13.8	–	–
COC(=O)C1=C(C)NC(C)=C(C(=O)OCC(C)=O)C1c1ccccc1[N+](=O)[O-] (stereo not shown) [Aranidipine]	-56±6%	12.8 ± 3.68	inactive	inactive	inactive	inactive	–	–	–	–	–
COc1cc(Nc2c(C#N)cnc3cc(OCCCN4CCN(C)CC4)c(OC)cc23)c(Cl)cc1Cl [Bosutinib;PF-5208763/SKI-606]	-97±4%	0.75 ± 0.48	–	-56±1%	–	-57%	–	16.6 ± 11.2	1.23	–	–
CN[C@H]1CC[C@@H](c2ccc(Cl)c(Cl)c2)c2ccc(S(N)(=O)=O)cc21	-78±20%	8.31 ± 1.43	–	-51±37%	–	-84%	–	35.7 ± 5.79	10	–	–
CCCCCCOc1ccccc1C(N)=O [Exalamide]	-73±11%	9.81 ± 3	–	-59±17%	inactive	inactive	–	–	–	–	29.2 ± 2.37
Oc1ccc2cc(SSc3ccc4cc(O)ccc4c3)ccc2c1 [6-Hydroxy-2-naphthyl disulfide]	-110±7%	33.7 ± 3.64	–	-68±46%	–	-98%	–	39.8	28.2	–	–
CCCC(c1cc(C(C)(C)C)c(O)cc1C)c1cc(C(C)(C)C)c(O)cc1C	-106±11%	–	–	-61±15%	–	-100%	5.51 ± 1.58	21.1 ± 18.2	7.08	–	–
Nc1nc(-c2ccc([N+](=O)[O-])cc2)cs1 [2-Amino-4-(p-nitrophenyl)thiazole]	-59±9%	3.9 ± 1.78	–	-53±16%	–	-54%	–	20.6 ± 21.1	8.91	–	–
